Source: patent US20250257103A1, “Antimicrobial Proteins” (The Olive Feed Corporation Limited, priority 2024, published 2025)
Where no end group is shown, it is not given here.

Experiments:
Test in all cases: Candida growth inhibition, micro-broth dilution
Assay type in all cases: cell-based
Candida albicans 5314 = conditions: estimate
Description: (§1) The proteins were chemically synthesised by solid phase peptide synthesis at a purity of >90% by (GL Biochem Ltd. Shanghai, People's Republic of China). Post-synthesis, the proteins were stored lyophilised at −20° C. to maintain their integrity. The proteins were weighed and dissolved in ultrapure water as a stock solution prior to experimentation. For all assays a 1:1 dilution was made with double-strength broth, the composition of which was tailored to the specific requirements of the organism.
(§2) Antifungal activity was assessed by a micro-broth dilution method modified by Handcock for cationic peptides and proteins. Given the propensity of cationic peptides and proteins to bind polystyrene, 96-well polypropylene plates were used as an alternative. Candida species MIC analysis were performed using ½ strength potato dextrose broth (PDB).
(§3) 96-well flat-bottomed polypropylene plates were prepared 30 mins prior to inoculation. The outer wells of the plate were filled with 200 μl of diH2O to mitigate evaporation in test lanes during incubation with low volumes and for prolonged periods. Given the high cost of the synthetic proteins minimal volume of 100 μl was utilised, and preliminary testing was conducted in duplicate. 50 μl of ½ strength PDB was dispensed into all remaining wells except column 3. 100 μl was added to column 2 and acting as a ‘broth only’ sterile control. Subsequently, 100 μl of the top standard protein solution, prepared at a 2× concentration (500 μg/ml) and suspended in half-strength PDB, was added to column 3. Using a multichannel pipette, 50 μl from each well in column 3 (rows B through G) were mixed with an equal volume of broth in column 4. This procedure was repeated by serial diluting the protein down to column 10. The final […] was not transferred to lane 11 but was instead disposed of.
(§4) Candida species were grown over 48 hours on ½ strength potato dextrose agar (PDA) at a temperature of 35° C. Cells were harvested directly from the agar plates and resuspended in 2 ml of ½ PDB. The cell concentration was determined using a haemocytometer, and subsequently, cells were diluted to 1×10^5 cells/ml in ½ strength PDB, resulting in a concentration of 5,000 cells per well. 50 μl of the diluted cell suspension was added to the wells in columns 3-11, working backwards from the lowest protein concentration. This step ensured a total volume of 100 μl in each well, giving a final top standard protein concentration of 250 μg/ml in the assay. Column 11 was designated as the growth control, containing cells only.
(§5) Absorbance readings were taken at time zero (T=0) at a wavelength of 595 nm for the analysis of all Candida spp. Subsequently, all plates were incubated at 35° C. for 24 hrs. To ensure uniform resuspension of cells, a multichannel pipette was used to agitate the cell suspension. A second series of absorbance measurements at 595 nm was conducted at T=24, enabling a comprehensive assessment of growth over the 24-hour period).
(§6) The activities of synthetic plant-like defensin analogues Olv1 and Olv2 were assessed against Candida albicans sc5314 (Table 2, FIG. 5A), Candida parapsilosis (Table 3, FIG. 5B), Candida tropicalis (Table 4, FIG. 5C) and Candida krusei (Table 5, FIG. 5D).
(§7) Log IC50: The logarithm of the concentration at which 50% inhibition of growth is observed, Hill-slope: Describes the steepness of the curve; a steeper slope indicates a more cooperative binding to the target and a sharper transition between the non-effective and effective doses and IC50: The actual concentration at which 50% inhibition is achieved, derived from the Log IC50.

Candida parapsilosis = conditions: estimate; for Hill-slope: dose-response curve; for IC50 / LogIC50: growth inhibition, 24 hrs, 35° C., ½ strength PDB
Description: as §1, §2, §3, §4, §5, §6, §7

Candida tropicalis = conditions: estimate; for Hill-slope: dose-response curve
Description: as §1, §2, §3, §4, §5, §6, §7

Candida krusei = tested on: Candida krusei; parameters: LogIC50: unit not given here; conditions: estimate; for Hill-slope: dose-response curve; for IC50 / LogIC50: growth inhibition, 24 hrs, 35° C., ½ strength PDB
Description: as §1, §2, §3, §4, §5, §6, §7

[1] = Candida albicans 5314, growth inhibition, 24 hrs, 35° C., ½ strength PDB
[2] = growth inhibition, 24 hrs, 35° C., ½ strength PDB

Sequence | IC50 (Candida albicans 5314; [1]) | LogIC50 (Candida albicans 5314; [1]) | Hill-slope (Candida parapsilosis) | IC50 (Candida parapsilosis) | LogIC50 (Candida parapsilosis) | Hill-slope (Candida tropicalis) | LogIC50 (Candida tropicalis; [2]) | Hill-slope (Candida krusei) | IC50 (Candida krusei) | LogIC50 (Candida krusei) | Hill-slope (Candida albicans 5314; Candida albicans 5314, dose-response curve) | IC50 (Candida tropicalis; [2])
RTCESQSHRFKGSCVSKSNCAAVCQTEGFPDGYCRGFRRRCFCSKHC (cysteines drawn unpaired) [Olv1] | 94.113 µg/mL | 1.974 | −3.181 | 56.919 µg/mL | 1.755 | −9.410 | 1.602 log10(μg/ml) | −11.209 | 90.642 µg/mL | 1.957 | – | –
RVCSRLSKTWSGLCLNSGNCNRQCRNWEGALRGACHKRGWGFACFCYRKC (cysteines drawn unpaired) [Olv2] | – | 1.866 | −3.474 | 54.233 µg/mL | 1.734 | −4.862 | 1.417 log10(μg/ml) | −10.527 | 40.346 µg/mL | 1.606 | −11.59 | 26.098 µg/mL
